Key:
Assay type in all cases: cell-based, human
[1] = test system: caspase-4; test: Cleavage of caspase-4 in SK-N-SH cells treated with amyloid-β peptides (Western blotting); details: 25 μM Aβ25-35, 5 μM Aβ1-40, 25 μM Aβ35-25, 5 M Aβ40-1
Experimental: Thereafter, the cells obtained were washed with phosphate buffered saline, and then harvested. The resulting cells were lysed in TNE buffer (composition: 10 mM Tris-HCl, pH 7.8, 1 mM EDTA, 150 mM NaCl, 1 mM phenylmethylsulphonyl fluoride) containing 0.5% by weight of NP-40 (trade name: Nonidet P-40), to give a cell extract. Equal amount of a cell extract (corresponding to 15 μg of protein) was subjected to 12% by weight SDS-PAGE. After the SDS-PAGE, proteins on the gel were transferred to a PVDF membrane (manufactured by Millipore). The membrane was blocked with 5% by weight of bovine serum albumin (BSA). The resulting membrane was incubated with a primary antibody (anti-caspase-4 antibody, anti-caspase-3 antibody, anti-caspase-7 antibody or anti-β-actin antibody), and thereafter incubated with a horseradish peroxidase (HRP)-conjugated secondary antibody. Thereafter, caspase-4, caspase-3, caspase-7 or β-actin was detected with trade name: ECL detection system (manufactured by Amersham-Pharmacia). […]
SK-N-SH cells were incubated in α-MEM (manufactured by Invitrogen) containing 10% by weight of fetal bovine serum, at 37° C. under 5% by volume of CO2, with 25 μM Aβ25-35, 5 μM Aβ1-40, 25 μM Aβ35-25, or 5 M Aβ40-1. Caspase-4, caspase-7 or β-actin in the cell extract was then detected in the same manner as described above.

[2] = test system: pro-caspase-4; test: Cleavage of pro-caspase-4 in SK-N-SH cells treated with apoptosis inducers (Western blotting); details: tunicamycin 1 μg/ml, thapsigargin 0.5 μM, etoposide 100 μM for 16 or 24 hours, staurosporine 0.1 μM for 8 hours
Experimental: SK-N-SH cells were treated with various kinds of apoptosis inducers such as tunicamycin (manufactured by SIGMA), thapsigargin (manufactured by SIGMA), etoposide (manufactured by SIGMA), staurosporine (manufactured by SIGMA), UV and the like, to evaluate change in caspase-4. Specifically, SK-N-SH cells were treated either with exposure to an endoplasmic reticulum stress inducer, tunicamycin (1 μg/ml) or thapsigargin (0.5 μM), exposure to a non-endoplasmic reticulum stress inducer, etoposide (100 μM) or staurosporine (0.1 μM), or irradiated with 150 J/m2 UV, in α-MEM (manufactured by Invitrogen) containing 10% by weight of fetal bovine serum, at 37° C. under 5% by volume of CO2. Here, the exposures to tunicamycin, thapsigargin and etoposide were 16 or 24 hours, exposure to staurosporine was 8 hours, and UV irradiation was 8 hours.
Thereafter, the cells obtained were washed with phosphate buffered saline, and then harvested. The resulting cells were lysed in TNE buffer (composition: 10 mM Tris-HCl, pH 7.8, 1 mM EDTA, 150 mM NaCl, 1 mM phenylmethylsulphonyl fluoride) containing 0.5% by weight of NP-40 (trade name: Nonidet P-40), to give a cell extract. Equal amount of a cell extract (corresponding to 15 μg of protein) was subjected to 12% by weight SDS-PAGE. After the SDS-PAGE, proteins on the gel were transferred to a PVDF membrane (manufactured by Millipore). The membrane was blocked with 5% by weight of bovine serum albumin (BSA). The resulting membrane was incubated with a primary antibody (anti-caspase-4 antibody, anti-caspase-3 antibody, anti-caspase-7 antibody or anti-β-actin antibody), and thereafter incubated with a horseradish peroxidase (HRP)-conjugated secondary antibody. Thereafter, caspase-4, caspase-3, caspase-7 or β-actin was detected with trade name: ECL detection system (manufactured by Amersham-Pharmacia).

[3] = test system: SK-N-SH cells; test: Thapsigargin-induced cell death assessed by morphological changes in SK-N-SH cells; details: untransfected SK-N-SH cells; 0.5 μM thapsigargin for 40 hours
Experimental: In the same manner as described above, cellular morphological changes of SK-N-SH cells treated with various apoptosis inducers were evaluated by phase contrast microscopy. SK-N-SH cells treated in the same manner were stained with 10 μM Hoechst 33342. Nuclear morphological changes of stained cells were evaluated by fluorescence microscopy. Cell death was detected by using as an index cellular morphological changes and nuclear morphological changes. At least 500 cells were counted. The data was expressed as the mean ±SEM from three independent experiments and P values were calculated by Student's t-test.
SK-N-SH cell was transfected at 50% of confluence with 1.0 μg of the siRNA in 24-well plastic plates (manufactured by Nunc) containing αMEM (manufactured by Invitrogen) containing 10% by weight of fetal bovine serum, at 37° C. under 5% by volume of CO2, using trade name: Oligofectamine (manufactured by Invitrogen) according to the manufacturer's protocol. Transfected SK-N-SH cells were incubated at 37° C. for 60 hours without changing the medium.
In addition, SK-N-SH cells after the culturing were incubated in αMEM (manufactured by Invitrogen) containing 10% by weight of fetal bovine serum at 37° C. under 5% by volume of CO2, with or without 0.5 μM thapsigargin for 40 hours. […] Caspase-4 or β-actin was then detected with an ECL detection system (manufactured by Amersham-Pharmacia). […]

[4] = test system: SK-N-SH cell; test: Nuclear morphological changes (Hoechst33342) after tunicamycin in vector-transfected SK-N-SH cells; details: tunicamycin 1 μg/ml for 30 hours
Experimental: (§1) SK-N-SH cells were stably transfected with pCAGGS-hBcl-2 (Iwahashi, H. et al., Nature, 390, 413-417 (1997), all teachings of which are incorporated herein by reference) by a conventional method. The resulting cells were then cultured in αMEM (manufactured by Invitrogen) containing 10% by weight of fetal bovine serum, at 37° C. under 5% by volume of CO2 to overexpress Bcl-2. Similarly, HeLa cells were stably transfected with pCAGGS-hBcl-2. The resulting cells were then cultured in DMEM (manufactured by Invitrogen) containing 10% by weight of fetal bovine serum, at 37° C. under 5% by volume of CO2 for 48 hours to overexpress Bcl-2. Here, SK-N-SH cells and HeLa cells were stably transfected with trade name: pCAGGS (Hitoshi Niwa et al., Gene, 108, 193-200 (1991), all teachings of which are incorporated herein by reference) as controls, in the same manner as described above, respectively.
(§2) In addition, each of the transfectants was treated with tunicamycin (1 μg/ml) for 30 hours, stained with Hoechst33342, and observed by fluorescence microscopy.

[5] = test system: HeLa cell; test: Nuclear morphological changes (Hoechst33342) after tunicamycin in vector-transfected HeLa cells; details: tunicamycin 1 μg/ml for 30 hours
Experimental: as §1, §2

| Compound | cleavage of caspase-4 [1] | cleavage of pro-caspase-4 [2] | other results |
| --- | --- | --- | --- |
| Aβ25-35: partial peptide of amyloid-β (GSNKGAIIGLM; Amyloid-beta protein 40; UniProt P05067 696-706, looked up, fragment) | cleavage of caspase-4 was observed | – | – |
| CN[C@@H]1C[C@H]2O[C@@](C)([C@@H]1OC)n1c3ccccc3c3c4c(c5c6ccccc6n2c5c31)C(=O)NC4 [staurosporine] | – | not cleaved | – |
| Aβ1-40: amyloid-β peptide 1-40 | cleavage of caspase-4 was observed | – | – |
| COc1cc([C@@H]2c3cc4c(cc3[C@@H](O[C@@H]3O[C@@H]5CO[C@@H](C)O[C@H]5[C@H](O)[C@H]3O)[C@H]3COC(=O)[C@H]23)OCO4)cc(OC)c1O [etoposide] | – | not cleaved | – |
| C/C=C(/C)C(=O)O[C@H]1C(C)=C2[C@H]([C@@H]1OC(=O)CCCCCCC)[C@@](C)(OC(C)=O)C[C@H](OC(=O)CCC)[C@@]1(O)[C@H]2OC(=O)[C@@]1(C)O [thapsigargin] | – | induced the cleavage of pro-caspase-4 | cells resulting in death [3]: about 60% |
| tunicamycin | – | induced the cleavage of pro-caspase-4 | apoptotic nuclear morphological changes [4]: apoptotic nuclear morphological changes were induced; apoptotic nuclear morphological changes [5]: apoptotic nuclear morphological changes were induced |

From patent publication US20060024699A1, “Method for evaluating a substance capable of effecting on endoplasmic reticulum stress-and/or amyloid beta-induced apoptosis” (priority 2004, published 2006)
